Results reported in US20240316164A1, “ENHANCED EXPRESSION OF AN AROMATIC AMINO ACID DECARBOXYLASE (AADC) IN THE SUBSTANTIA NIGRA FOR THE TREATMENT OF PARKINSON'S DISEASE” (Northwestern University, priority 2021, published 2024).
“Also recorded” adds a separate entry of the source.

Tests used:
cNdufs2−/− mice [1] = assay: Gait analysis on treadmill; type: in vivo, mouse
Source text: (§1) FIG. 4. cNdufs2^−/− mice manifest a progressive, levodopa-responsive Parkinsonism. a, Schematic diagram of the experimental protocol for Y maze test. […] Local electrical stimulation (350 μA, 2 ms) was used to evoke release. […] By P30, cNdufs2^−/− mice took longer (N=10-13 per group). e, Open-field traces in wildtype and cNdufs2^−/− mice at P30 and P100. f, Number of pauses during open field test in wildtype and cNdufs2^−/− mice. […] N=12-27per group. h-m, Gait analysis procedure and measurement schematics. h, Pictures of wildtype and cNdufs2^−/− mice footprints with representations of measurements of RF (Right Fore). RH (Right Hind). […] Box plots represent stride length in right hind paw at P100 (N=7 per group). m, Boxplots indicate swing duration in right hind paw. […] Kruskal-Wallis test: (b), (d), (f) and (g). ***P<0.001. 2-way ANOVA followed by Tukey's post hoc test (c). *P<0.05; **P<0.01; 1-way ANOVA followed by Tukey's post hoc test (i), (j), (l) and (m). Data are presented as box-and-whisker plots depicting median, quartiles, and range (b), (c), (i), (j), (l) and (m) or median and range (shaded area); (d), (f) and (g).
(§2) FIG. 21. Behavioral phenotypes in cNdufs2^−/− mice. (a) Rearing test performance. b. […] Number of rearings begin to be impaired at P40. […] At P60, cNdufs2^−/− mice show difficulty transitioning between rearing and landing, spending much more time ‘stuck’ in an elevated posture. […] P60 and P100. […] P60 and P100. […] P60 and P100. […] P60 and P100. […] 1. […] P60 and P100. […] P60 and P100. […] P60 and P100. […] Kruskal-Wallis test: (b), and (c). *P<0.05; **P<0.01; 1-way ANOVA followed by Tukey's post hoc test: (h-o). Data are presented as median and range (shaded area).
However, by P100, cNdufs2^−/− mice had splayed hindlimbs, abnormal paw placement and alterations in stride when forced to ambulate on the treadmill (FIG. 4h-m, FIG. 21h-o). […] Because cNdufs2^−/− mice manifest a clear, levodopa-responsive Parkinsonism that is attributable to MCI dysfunction, they are referred to as MCI-Park mice.

cNdufs2−/− mice [2] = assay: Open field test; type: in vivo, mouse
cNdufs2−/− mice [3] = assay: Rearing test; type: in vivo, mouse; conditions: levodopa 3 mg/kg, P20-P120
Source text: as §2
By P40, open-field, exploratory behavior of cNdufs2″ mice began to be interrupted by brief pauses, although the total distance traveled in the testing period was normal (FIGS. 4e-g). Later, open-field behavior of cNdufs2^−/− mice became progressively more impaired and total distance traveled began to fall (FIG. 4g). […] Another common exploratory behavior of mice involves rearing. When placed in a tall glass cylinder, mice rear, land and rear again in a different part of the cylinder; in a 3-minute period, mice typically rear and land 15-20 times. At P30, rearing behavior of cNdufs2^−/− mice was normal, but by P60 cNdufs2^−/− mice appeared to have difficulty transitioning between rearing and landing, spending much more time ‘stuck’ in an elevated posture. […]

cNdufs2−/− mice [4] = assay: Y maze associative learning test; type: in vivo, mouse; conditions: systemic levodopa 6 mg/kg, P30
Source text: as §1
Unlike conventional PD models in which DA is depleted rapidly throughout the basal ganglia, the staging of pathology in cNdufs2^−/− mice allowed an assessment of how regional deficits in DA release are coupled to behavior. […]

cNdufs2−/− mice [5] = assay: Adhesive removal test; type: in vivo, mouse; conditions: regardless of age
Source text: as §1
By P40, open-field, exploratory behavior of cNdufs2″ mice began to be interrupted by brief pauses, although the total distance traveled in the testing period was normal (FIGS. 4e-g). […]

SN dopaminergic neurons = assay: Cytosolic ATP/ADP ratio with PercevalHR in ex vivo brain slice; type: cell-based, mouse; conditions: wildtype dopaminergic neurons, inhibition of mitochondrial complex V
Source text: FIG. 1. Loss of Ndufs2 function triggers mitochondrial and genomic adaptations in SN DA Neurons. a, Schematic of a coronal section of the midbrain highlighting the sampled region of SNc (orange). b, Meta-analysis of RNAseq data obtained by Cre-dependent RiboTag mRNA precipitation from P40 wildtype mice. […] Scale bar: 10 μm. e, Representative TMRM fluorescence time series after the application of carboxyatractyloside, the adenine nucleotide transporter inhibitor (iANT). f, Box plots of TMRM after blocking ANT with carboxyatractyloside and depolarizing mitochondria with FCCP (wildtype, P40 n=8 (1 per section), 6 mice; cNdufs2^−/−, P20 n=4 (1 per section), 3 mice; P40 n=5 (1 per section), 4 mice)). g, Cartoon representing the activity of the ETC and ANT following Ndufs2 deletion. h, Electron micrographs of SN DA neurons. The nucleus and the mitochondria are highlighted in green and red, respectively. […] The percentage of abnormal mitochondria was calculated as the ration between the area occupied by abnormal mitochondria over the total area occupied by mitochondria for each cell. […] Scale bar: 15 μm. p, Representative time-lapse measurements of Perceval-HR fluorescence ratio. […]

[6] = levodopa 6 mg/kg, P30, P60 and P100

Row | SMILES | gait deficits (splayed hindlimbs, abnormal paw placement, alterations in stride) (cNdufs2−/− mice [1]; P100) | swing duration in right hind paw (cNdufs2−/− mice [1]; levodopa 6 mg/kg) | brake duration in right hind paw (cNdufs2−/− mice [1]; [6]) | propulsion time in right hind paw (cNdufs2−/− mice [1]; [6]) | step sequence in right hind paw (cNdufs2−/− mice [1]; [6]) | stride frequency in right hind paw (cNdufs2−/− mice [1]; [6]) | hind limb stance width (cNdufs2−/− mice [1]; levodopa 6 mg/kg, P100) | paw area in right hind paw (cNdufs2−/− mice [1]; levodopa 6 mg/kg, P100) | stance duration in right hind paw (cNdufs2−/− mice [1]; levodopa 6 mg/kg, P100) | number of pauses during open field test (cNdufs2−/− mice [2]; cNdufs2−/− mice, levodopa 3 mg/kg) | open-field performance (pauses, total distance traveled) (cNdufs2−/− mice [2]; cNdufs2−/− mice, levodopa treatment) | open-field ambulation (cNdufs2−/− mice [2]; control MCI-Park mice without AADC, low systemic levodopa dose 1.5 mg/kg, ~P100, 1.5 mg/kg) | number of rearings in a 3-minute period (cNdufs2−/− mice [3]) | rearing time (cNdufs2−/− mice [3]) | associative learning (memory) task, percentage of correct choices (cNdufs2−/− mice [4]) | adhesive removal speed (cNdufs2−/− mice [5]) | cytosolic ATP/ADP ratio (ATP levels) (SN dopaminergic neurons)
1 | N[C@@H](Cc1ccc(O)c(O)c1)C(=O)O [levodopa] | ameliorated some, but not all of these deficits | not rescued | did not rescue this phenotype | did not rescue this phenotype | did not rescue this phenotype | did not rescue this phenotype | rescued this phenotype | rescued this phenotype at P100 | rescued this phenotype at P100 | rescued this deficit | improved performance in this task | had no discernible effect | did not rescue this deficit | did not lessen this deficit; also recorded: did not rescue this deficit | restored | improved adhesive removal speed regardless of age | –
2 | CC[C@H]1/C=C/C=C/C[C@@H](C)[C@H](O)[C@@](C)(O)C(=O)[C@@H](C)[C@H](O)[C@@H](C)C(=O)[C@@H](C)[C@H](O)[C@@H](C)/C=C/C(=O)O[C@@H]2[C@H](C)[C@H](CC1)O[C@]1(CC[C@H](C)[C@H](C[C@@H](C)O)O1)[C@H]2C [oligomycin] | – | – | – | – | – | – | – | – | – | – | – | – | – | – | – | – | caused a precipitous drop in ATP levels
